Here are results for six molecules from PMC12406204 (Journal of Medicinal Chemistry, 2025).

Assay [1] deals with T1, CB2R (Homo sapiens, UniProt P34972). Kind of assay: CB2R MAPK phosphorylation. In kind it is cell-based. More on the design: expressed in transfected cells; host or cells: HEK-293T, transient transfection (PEI). Particulars: for Emax: normalized to CP 55,940. The text has this: (§1) Initially we tested their ability to modify CB2R-mediated cAMP accumulation, providing insights into their functional behavior as either agonists or antagonists (Table ). Moreover, the signaling profiles of selected ligands were investigated through their impact on β-arrestin recruitment and Mitogen-Activated Protein Kinase (MAPK) phosphorylation pathway, enabling a more comprehensive evaluation of their intracellular signaling profiles (Table ).
(§2) JWH-133, a well-known nonbiased (balanced) agonist, was employed as the reference for comparing the signaling profiles of the tested compounds. An operational model analysis was applied to quantify the functional bias of each CB2R-selective agonist. This involved calculating the bias factor by comparing the signaling pathways: β-arrestin versus cAMP, MAPK versus cAMP, and β-arrestin versus MAPK.

For assay [2], the system named is human monocytes and macrophages (THP-1 cells). Briefly: Cytokine production in THP-1 monocytes and macrophages (ELISA/qRT-PCR). The note with it: 100 nM; for cytokine modulation profile (reduction of pro-inflammatory, increase of anti-inflammatory cytokines): monocytes and macrophages; for production of pro-inflammatory cytokines (TNF-α, IFN-γ, IL-1β, IL-6): unstimulated monocytes and macrophages, 24 h. In kind it is cell-based. The protocol: Six representative CB2R agonists (16i, 16j, 18e, 18f, 18o, and 18p) were evaluated for their ability to modulate the production of key pro- (e.g., TNF-α, IFN-γ, IL-1β, IL-6) and anti-inflammatory (e.g., IL-4, IL-10) cytokines in human monocytes and macrophages, where CB2R is abundantly expressed. The experiments were performed both in basal and LPS-activated states and would allow to gain insight into how these compounds affect circulating leukocytes (monocytes) and tissue-resident cells (macrophages). To mimic an inflammatory environment, both cell types were also treated with LPS, enabling an assessment of the anti-inflammatory potential of the compounds in both resting and activated states. Alongside the selected ligands, the study included HU308, a well-established CB2R-selective agonist known for its anti-inflammatory properties, and SR144528, a CB2R-selective antagonist. SR144528 was used alone and in combination with the test compounds to confirm that the observed effects were specifically mediated through CB2R activation.
8 Cytokines levels in human monocytes (A, B) and macrophages (C, D) treated with CB2R ligands. THP-1 cells either untreated (A-B) or treated (C, D) with 0.01 μM PMA for 48 h to differentiate them into macrophages, were incubated for additional 24 h in the absence (A, C) or presence of 10 μg/mL LPS (B, D), without (Ctrl) or with the CB2R reference agonist HU308, the reference antagonist SR144528 and the CB2R ligands 16i, 16j, 18e, 18f, 18o, 18p at 100 nM. All the compounds were tested alone (solid bars) and in the presence of the CB2R antagonist SR144528 (striped bars). Cytokine levels were measured by ELISA coupled with qRT-PCR. Data are means ± SD (n = 3). Two-way ANOVA followed by Tukey’s posthoc test was applied. *p < 0.05; **p < 0.01; ***p < 0.001; ****p < 0.0001; * indicates vs Ctrl.
The amount of cytokines was measured in 5 μL of supernatants, derived from 1 × 10^4 cells, using the ProQuantum immunoassays kits for TNF-α, IFN-γ, IL-1β, IL-6, IL-10, and IL-4 [all from ThermoFisher Scientific (Waltham, MA)] according to the manufacturer’s instructions. The results were expressed as pg/mL based on the titration curved of each kits.
Background: ELISA stands for enzyme-linked immunosorbent assay.

Assay [3] deals with T1, CB2R. Briefly: CB2R cAMP determination after forskolin stimulation in transfected HEK-293T cells. The class given is cell-based. The note with it: for Emax: HEK-293T, normalized to maximal efficacious concentration of CP 55,940, read-out: CB2R Emax AMPc (converted); for EC50: transfected HEK-293T cells, forskolin-stimulated cAMP, read-out: CB2R EC50 AMPc. Further details: expressed in transfected cells; host or cells: HEK-293T, transient transfection (PEI). The method, then: as §1
HEK-293T cells were grown in Dulbecco’s Modified Eagle’s Medium (DMEM) medium (Gibco, Paisley, Scotland, United Kingdom) supplemented with 2 mM L-glutamine, 100 U/mL penicillin/streptomycin, MEM Non-Essential Amino Acids Solution (1/100) and 5% (v/v) heat inactivated Fetal Bovine Serum (FBS) (Invitrogen, Paisley, Scotland, United Kingdom). Cells were maintained in a humid atmosphere of 5% CO2 at 37 °C. Cells were transiently transfected with the PEI (Polyethylenimine, Sigma, St. Louis, MO, United States) method as previously described and used for functional assays 48 h later.
Signaling experiments have been performed as previously described. Two hours before initiating the experiment, HEK-293T cell-culture medium was replaced by serum-starved DMEM medium. Then, cells were detached, resuspended in growing medium containing […] zardaverine (Tocris, Bristol, U.K.) and placed in 384-well microplates (2500 cells/well). Cells were pretreated (15 min) with cannabinoid compounds (1 nM to 100 μM) -or vehicle- before adding […] forskolin (Tocris, Bristol, U.K.) to induce cAMP accumulation. Readings were performed after 15 min incubation at 25 °C. Homogeneous Time Resolved Fluorescence (HTRF) energy transfer measures were performed using the Lance Ultra cAMP kit (PerkinElmer, Waltham, MA, United States). Fluorescence at 665 nm was analyzed in a PHERA star Flagship microplate reader equipped with an HTRF optical module (BMG Lab Technologies, Offenburg, Germany).

The target of assay [4] is T1, CB2R. Kind of assay: CB2R β-arrestin recruitment. More on the design: expressed in transfected cells; host or cells: HEK-293T, transient transfection (PEI). The class given is cell-based. Particulars: for Emax: normalized to CP 55,940.
From the text: as §1, §2

For assay [5], the target named is T1, CB2R. Briefly: Signaling bias quantification (relative activity model, JWH-133 reference). The note with it: in parentheses. The class given is cell-based. More on the design: expressed in transfected cells; host or cells: HEK-293T, transient transfection (PEI).
From the text: as §2

The target of assay [6] is T1, CB2R. Briefly: CB2R radioligand binding competition ([3H]CP55,940). More on the design: expressed in transfected cells; host or cells: HEK-293T (HEK-CB2 cell line). The note with it: for Ki: displacement of [3H]CP 55,940, membranes of HEK-293T cells, n = 3; for SI Ki CB1R/Ki CB2R: selectivity index, affinity ratio. In general terms: In a radioligand displacement assay an active substance lowers the binding of a labelled ligand.

Bounds are passed on as bounds.

T1 sequence (P34972 whole entry): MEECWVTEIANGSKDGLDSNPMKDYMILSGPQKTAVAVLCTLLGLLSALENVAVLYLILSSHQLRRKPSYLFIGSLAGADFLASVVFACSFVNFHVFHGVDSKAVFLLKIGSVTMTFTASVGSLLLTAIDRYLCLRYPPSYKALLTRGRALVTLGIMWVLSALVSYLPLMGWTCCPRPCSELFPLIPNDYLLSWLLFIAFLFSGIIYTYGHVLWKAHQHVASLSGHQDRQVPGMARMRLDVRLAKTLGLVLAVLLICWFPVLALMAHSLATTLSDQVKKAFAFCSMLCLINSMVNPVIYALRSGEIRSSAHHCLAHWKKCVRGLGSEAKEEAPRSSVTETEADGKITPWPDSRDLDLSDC

Turning to `CCCCCn1nc(C(=O)N2CCCC[C@H]2C(=O)OC)c2ccccc21` [16i], in assay [1], the EC50 was determined as 0.38 ± 0.09 nM and the Emax is 88%. Moreover, in assay [2], the “cytokine modulation profile (reduction of pro-inflammatory, increase of anti-inflammatory cytokines)” value is reported as “significant reduction” and the “production of pro-inflammatory cytokines (TNF-α, IFN-γ, IL-1β, IL-6)” value (“production of pro-inflammatory cytokines” below) was “significantly reduced”. Moreover, in assay [3], the Emax was 64% and the concentration giving a half-maximal response (EC50) turned out to be 0.03 ± 0.01 nM. In assay [4], this molecule showed an EC50 of 1.09 ± 0.01 nM and an Emax of 48%. In assay [5], the “Preferred (biased) pathway MAPK – cAMP” value is “G protein”, the “Preferred (biased) pathway β-arrestin – MAPK” value (“Preferred … – MAPK” for short) is given as “MAPK” and the “Preferred (biased) pathway β-arrestin – cAMP” value is “G protein”. Besides, in assay [6], the inhibitory constant (Ki) was 10.9 ± 0.5 nM and the “SI Ki CB1R/Ki CB2R” value is reported as 62.
For `CCCCCn1nc(C(=O)N2CCCC[C@@H]2C(=O)OC)c2ccccc21` [16j], in assay [1], the EC50 is 0.09 ± 0.003 nM and the Emax worked out at 89%. Also, in assay [2], the “cytokine modulation profile (reduction of pro-inflammatory, increase of anti-inflammatory cytokines)” value is recorded as “significant reduction” and the “production of pro-inflammatory cytokines” value is “significantly reduced”. In addition, in assay [3], the maximal effect (Emax) is 53% and the EC50 is 0.09 ± 0.01 nM. Also, in assay [4], the midpoint of the response, the EC50, lay at 0.28 ± 0.02 nM and the maximum response (Emax) is 65%. Besides, in assay [5], the “Preferred (biased) pathway MAPK – cAMP” value is “No bias”, the “Preferred … – MAPK” value is “MAPK” and the “Preferred (biased) pathway β-arrestin – cAMP” value is given as “G protein”. In assay [6], affinity was put at a Ki of 89.1 ± 3.1 nM and the “SI Ki CB1R/Ki CB2R” value is more than 100.
With `NC(=O)[C@@H]1CCCCN1C(=O)c1cn(CC2CCCCC2)c2ccccc12` [18e], in assay [1], the EC50 is 0.09 ± 0.002 nM and the Emax is 74%. Also, in assay [2], the “cytokine modulation profile (reduction of pro-inflammatory, increase of anti-inflammatory cytokines)” value is “limited efficacy” and the “production of pro-inflammatory cytokines” value is “significantly reduced”. For the same molecule, in assay [3], the Emax was 82% and the 50% effective concentration (EC50) was 1701 ± 12 nM. Also, in assay [4], a half-maximal effect (EC50) was put at 0.4 ± 0.08 nM and the Emax is 120%. Besides, in assay [5], the “Preferred (biased) pathway MAPK – cAMP” value is given as “MAPK”, the “Preferred … – MAPK” value is listed as “MAPK” and the “Preferred (biased) pathway β-arrestin – cAMP” value is “β-arrestin”. Further, in assay [6], the affinity corresponds to a Ki of 30.2 ± 1.2 nM and the “SI Ki CB1R/Ki CB2R” value was more than 100.
In assay [1], `NC(=O)[C@H]1CCCCN1C(=O)c1cn(CC2CCCCC2)c2ccccc12` [18f] showed an EC50 of 0.07 ± 0.007 nM and a maximum response (Emax) of 94%. Further, in assay [2], the “cytokine modulation profile (reduction of pro-inflammatory, increase of anti-inflammatory cytokines)” value is “limited efficacy” and the “production of pro-inflammatory cytokines” value was “significantly reduced”. In addition, in assay [3], the maximal response (Emax) is 55% and the half-maximal effective concentration (EC50) was 118 ± 4 nM. In assay [4], this molecule showed a 50% effective concentration (EC50) of 0.08 ± 0.01 nM and a maximal response (Emax) of 88%. In addition, in assay [5], the “Preferred (biased) pathway MAPK – cAMP” value is “MAPK”, the “Preferred … – MAPK” value is “MAPK” and the “Preferred (biased) pathway β-arrestin – cAMP” value is reported as “β-arrestin”. For the same molecule, in assay [6], the Ki was determined as 96.8 ± 2.6 nM and the “SI Ki CB1R/Ki CB2R” value is more than 100.
Regarding `NC(=O)[C@@H]1CCCCN1C(=O)c1nn(Cc2ccc(F)cc2)c2ccccc12` [18o], in assay [1], a half-maximal effect (EC50) was put at 0.03 ± 0.003 nM and the Emax was 68%. Besides, in assay [2], the “cytokine modulation profile (reduction of pro-inflammatory, increase of anti-inflammatory cytokines)” value is recorded as “significant reduction” and the “production of pro-inflammatory cytokines” value is “significantly reduced”. In assay [3], the maximum response (Emax) is 60% and the 50% effective concentration (EC50) was found to be 0.6 ± 0.09 nM. For the same molecule, in assay [4], the concentration for a half-maximal effect (EC50) was found to be 60.9 ± 2.5 nM and the maximal effect (Emax) was 148%. In assay [5], the “Preferred (biased) pathway MAPK – cAMP” value is on record as “MAPK”, the “Preferred … – MAPK” value is recorded as “MAPK” and the “Preferred (biased) pathway β-arrestin – cAMP” value is on record as “G protein”. Also, in assay [6], affinity was put at a Ki of 54.6 ± 1.1 nM and the “SI Ki CB1R/Ki CB2R” value is reported as more than 100.
Turning to `NC(=O)[C@H]1CCCCN1C(=O)c1nn(Cc2ccc(F)cc2)c2ccccc12` [18p], in assay [1], the EC50 was determined as 0.4 ± 0.02 nM and the maximal response (Emax) was 79%. Besides, in assay [2], the “cytokine modulation profile (reduction of pro-inflammatory, increase of anti-inflammatory cytokines)” value was “significant reduction” and the “production of pro-inflammatory cytokines” value is listed as “significantly reduced”. In assay [3], the Emax was 58% and the EC50 turned out to be 6.8 ± 0.3 nM. In assay [4], this molecule gave an EC50 of 326 ± 4 nM and a maximum response (Emax) of 77%. Further, in assay [5], the “Preferred (biased) pathway MAPK – cAMP” value is reported as “MAPK”, the “Preferred … – MAPK” value is “MAPK” and the “Preferred (biased) pathway β-arrestin – cAMP” value is recorded as “G protein”. Further, in assay [6], the inhibition constant Ki was determined as 120 ± 5 nM and the “SI Ki CB1R/Ki CB2R” value is given as more than 100.

Usually EC50 stands for the concentration giving half of the maximal effect. The term Emax denotes the greatest response seen or fitted, relative to the assay's reference. What is called Ki is the dissociation constant of the complex between target and ligand, obtained from inhibition or displacement. A low value points to tighter binding.
